Article PMC5974403, “The novel histone de acetylase 6 inhibitor, MPT0G211, ameliorates tau phosphorylation and cognitive deficits in an Alzheimer’s disease model” (Cell Death & Disease, 2018)
Entries after “also recorded” stand apart in the source; their conditions may differ.

Legend:
Neuro-2a cells [1] = test: Western blot of acetyl-α-tubulin and acetyl-histone, Neuro-2a cells; assay type: cell-based, mouse; conditions: 0.1 to 1 μM, 24 h
Protocol: (§1) Cell viabilities were determined by MTT assay. The results represent the mean ± SEM of three independent experiments; *p < 0.05, **p < 0.01 and ***p < 0.001 compared with controls TEXT PRINTED IN THE PICTURE: (A) no label printed: M.W. 293.32
(§2) Cells (1 × 10^6) were incubated for 10 min at 4 °C in lysis buffer (20 mM HEPES, pH 7.4, 2 mM EGTA, 50 mM β-glycerophosphate, 0.1% Triton X-100, 10% glycerol, 1 mM dithiothreitol, 1 μg/mL leupeptin, 5 μg/mL aprotinin, 1 mM phenylmethylsulfonyl fluoride, and 1 mM sodium orthovanadate), scraped from the plate, incubated on ice for 10 min, and centrifuged at 17,000 × g for 30 min at 4 °C. Protein samples (30 μg) were electrophoresed through sodium dodecyl sulfate-polyacrylamide gels (SDS-PAGE) and transferred onto a nitrocellulose membrane, which was then blocked by incubation for 30 min at room temperature with 5% fat-free milk in PBS. Immunoblotting was performed by overnight incubation at 4 °C with primary antibodies in PBS, followed by incubation for 1 h at room temperature with HRP-conjugated secondary antibodies. Bound antibodies were measured using ECL reagent (T-Pro Biotechnology, New Taipei City, Taiwan), and the membrane was placed on a photographic film. Cell lysates (30 μg) were incubated with antibodies (1 μg each) and protein A/G agarose beads overnight at 4 °C. The precipitated beads were washed three times with 1 mL of ice-cold cell lysis buffer, and bound immune complexes were separated using 8% SDS-PAGE, followed by immunoblotting using the indicated primary antibody.

SH-SY5Y cells [2] = test: MTT cell viability, SH-SY5Y; assay type: cell-based, human; conditions: 24 h, 0.01–1 μM
Protocol: as §1

SH-SY5Y cells [3] = test: Western blot of tau phosphorylation and kinases in SH-SY5Y cells transfected with pCAX APP 695 and pRK5-EGFP-Tau P301L; assay type: cell-based, human; conditions: 0.1 μM, 24 h
Protocol: (§3) Images represented magnification at ×100. b Cells were transfected with pCAX APP 695 for 24 h, harvested, and cell lysates were subjected to Western blotting. c, d SH-SY5Y and Neuro-2a cells were transfected with pCAX APP 695 and/or pRK5-EGFP-Tau P301L for 24 h. Cell lysates were prepared for western blot analysis of the indicated proteins. e, f Cells were transfected with pCAX APP 695 and pRK5-EGFP-Tau P301L for 24 h and were then incubated with or without MPT0G211 or ACY-1215 (0.1 μM) for another 24 h. Cell lysates were subjected to western blot analysis using the indicated antibodies. Results are presented as the mean ± SEM from three independent experiments. **p < 0.01, ***p < 0.001 compared with the control group; ^#p < 0.05, ^##p < 0.01 compared with the indicated groups
(§4) Cell lysates were prepared for western blot analysis of the indicated proteins. Results are presented as the mean ± SEM. *p < 0.05, **p < 0.01, and ***p < 0.001 compared with the control group; ^#p < 0.05, ^##p < 0.01, ^###p < 0.001 compared with the indicated groups
(§5) Cells were seeded 1 day before transfection. The plasmids pCAX FLAG APP and pRK5-EGFP-Tau P301L (1 μg each) and 1 μL of TurboFect transfection reagent were mixed for 20 min at room temperature, added to the cells, and the suspensions were incubated for 24 h at 37 °C in a humidified atmosphere containing 5% CO2.
as §2

Neuro-2a cells [4] = test: Western blot of tau phosphorylation and kinases in Neuro-2a cells transfected with pCAX APP 695 and pRK5-EGFP-Tau P301L; assay type: cell-based, mouse; conditions: 0.1 μM, 24 h
Protocol: as §3, §4, §5, §2

SH-SY5Y cells [5] = test: Immunoprecipitation/immunoblot of HDAC6, acetyl-lysine, ubiquitin in transfected SH-SY5Y cells; assay type: cell-based, human; conditions: 24 h
Protocol: Fig. 4 MPT0G211 increased the ubiquitination of p-tau and degradation by proteasome. a, b SH-SY5Y and Neuro-2a cells were transfected for 24 h with pCAX APP 695 and pRK5-EGFP-Tau P301L and incubated with MPT0G211 or ACY-1215 (0.1 μM) for another 24 h, after which the cell lysates were immunoprecipitated with antibodies against HDAC6, acetyl-lysine (a) or ubiquitin (b) and were subjected to immunoblotting. c Cells were transfected with pCAX APP 695 and pRK5-EGFP-Tau P301L for 24 h and were then incubated with MPT0G211 (0.01–1 μM) for another 24 h. Immunoblots reveal polyubiquitin complexes. d pCAX APP 695 or pRK5-EGFP-Tau P301L were used to transfect the cells for 24 h, incubated with or without MG132 (1 μM) for 30 min, and were then treated with MPT0G211 or ACY-1215 (0.1 μM) for another 24 h. Cell lysates were prepared for western blot analysis of the indicated proteins
as §2

## O=C(NO)c1ccc(CNc2cccc3cccnc23)cc1 [MPT0G211, N-hydroxy-4-((quinolin-8-ylamino)methyl)benzamide]
Neuro-2a cells [1]
  acetylation of histones: without affecting the acetylation of histones
  acetylation of α-tubulin: concentration-dependently increased
SH-SY5Y cells [2]
  cytotoxicity (MTT cell viability): did not result in any significant cytotoxicity
SH-SY5Y cells [3]; SH-SY5Y transfected hAPP 695 + hTau P301L
  phosphorylation of tau Ser396: significantly inhibited; also recorded: significantly attenuated
SH-SY5Y cells [3]; SH-SY5Y transfected
  CDK5, p25, or p35 expression: no marked changes
  phospho-GSK3β on Ser9: significant phospho-GSK3β increases
  phospho-GSK3β on Ser216: a decrease
  phosphorylation of tau Ser404: significantly attenuated
Neuro-2a cells [4]; Neuro-2a transfected hAPP 695 + hTau P301L
  phosphorylation of tau Ser396: significantly inhibited; also recorded: significantly attenuated
Neuro-2a cells [4]; Neuro-2a transfected
  CDK5, p25, or p35 expression: no marked changes
  phospho-GSK3β on Ser9: significant phospho-GSK3β increases
  phospho-GSK3β on Ser216: a decrease
  phosphorylation of tau Ser404: significantly attenuated
SH-SY5Y cells [5]; 0.1 μM
  coimmunoprecipitation of ubiquitin with p-tau (Ser396): clearly increased
SH-SY5Y cells [5]; 0.1 μM, IP
  HDAC6/Hsp90 binding: downregulation
  acetylation of Hsp90: clearly enhanced
SH-SY5Y cells [5]; 0.01–1 μM
  level of polyubiquitinated proteins: significantly accumulated
